One assay has as its system dissociated DRG neurons. Description: FluoVolt membrane potential imaging of dissociated DRG neurons. It counts as cell-based, mouse. The conditions noted are these: 1 day NGF followed by adenosine treatment; capsaicin stimulation. From the text:
DRG were isolated from mice using a modified version of the previously described protocol (Perner C, et al. (2021) STAR Protoc. 2:100333). Briefly, mice were euthanized and dosed in 70% ethanol to prevent fur contamination. Mice were positioned prone, and an incision was made along the spine from the neck to the base of the tail. Under a dissecting microscope, the surrounding soft tissue of the spinal column was removed from the dorsal side by Friedman-Pearson Rongeurs (Fine Science Tools, Foster City, CA, Cat #16021-14) from the mid thoracic region to the lumbosacral joint. The vertebral bone surrounding the DRG was gently crushed and removed with rongeurs exposing the spinal cord. The DRG were carefully extracted near the foramen between the vertebral levels. L3 and L4 DRG were collected for analyses. Dissected DRG were placed directly into ice-cold DMEM-F12 medium (ThermoFisher, Cat #11320033) for in vitro culture, Trizol (ThermoFisher, Cat #15596018) for PCR analyses, or 4% PFA for histology. For cell culture experiments, collected DRG were digested in digestion solution comprised of collagenase type II (Worthington, Lakewood, NJ, Cat #LS004176) and dispase (1.5 mg/mL each) dissolved in DMEM/F12. […]
DRG neuron potential changes were evaluated with FluoVolt, a voltage sensitive indicator dye (ThermoFisher, Cat #F10488). […]

The subject of assay [1] is bone marrow mesenchymal stromal cells (BM-MSCs). Briefly: RT-qPCR of osteogenic genes in bone marrow MSCs. It is filed as cell-based, mouse. The following applies: adenosine 30 μg/mL, 14 days, absence of osteogenic induction medium. As to the method:
MSCs were isolated as previously described with some modifications (Shih Y B, et al. (2019) Sci Adv. 5:eaax1387). Briefly, the femurs, tibiae, vertebrae of mice were harvested, crushed with pestle and mortar in harvest buffer (1% v/v FBS in PBS) to release bone marrow (BM) tissue, filtered through a 40-μm cell strainer, and centrifuged at 200 rcf. Cells were seeded in a 24-well plate at a cell density of 1 million cells/cm^2 in growth media (GM) containing α-MEM, FBS (10% v/v, ThermoFisher, Cat #16000044), penicillin/streptomycin (10000 U/mL; 1% v/v) and cultured in humidified incubator (37° C., 5% CO2). The medium was replaced after 3 days and further cultured for 6 days before passage. For passaging, cells were incubated in 0.25% trypsin-EDTA for 2 min at 37° C., detached with a cell scraper, neutralized by using GM, centrifuged, and sub-cultured at a density of 8000 cells/cm^2. All experiments were performed between 1-2 passage. Osteogenic medium (OM) was prepared by supplementing GM with 10 mM β-glycerophosphate (MilliporeSigma, Cat #G9422), 50 μM ascorbic acid-2-phosphate (MilliporeSigma, Cat #A8960), and 100 nM dexamethasone (MilliporeSigma, Cat #D4902).
Cells, DRG, or bone/marrow tissues were analyzed for gene expression by quantitative real-time polymerase chain reaction (RT-qPCR). Nucleic acids were extracted with TRIzol, phase-separated with chloroform, and precipitated in isopropanol. […] Quantitative PCR was performed with iTaq Universal SYBR green reagent (Bio-Rad, Cat #1725124) with denaturation at 95° C. for 30 sec for one cycle, and amplification (denaturation+annealing/extension) at 95° C. for 5 sec and 60° C. for 30 sec for 40 cycles on a polymerase chain reaction (PCR) cycler (Bio-Rad, CFX96 Touch). […]
The expression level of each target gene was normalized to the housekeeping gene and to their respective controls and presented as fold change expressed as 2^−ΔΔCt values. […]

This is an account of results in patent US20250152616A1, “COMPOSITIONS FOR AND METHODS OF TREATING, PREVENTING, AND/OR MITIGATING PAIN” (Duke University, priority 2022, published 2025).

Consider `Nc1ncnc2c1ncn2[C@@H]1O[C@H](CO)[C@@H](O)[C@H]1O` [adenosine], for which the “NGF-induced increase in membrane potential (FluoVolt)” value in the assay on dissociated DRG neurons is listed as “attenuated”. In addition, in assay [1], the Ibsp gene expression entry was “upregulated”, the Runx2 gene expression entry was “upregulated” and the Sp7 gene expression entry is recorded as “upregulated”.
